These results are taken from patent US12668600B2 (Kumquat Biosciences Inc., priority 2023, dated 2026).

Common to all, as to assay type: biochemical
The target of one assay is T1, KRAS WT (Homo sapiens, UniProt P01116).
T1 construct: made in house; host or cells: E. coli, e.g. BL21 (DE3)
Kind of assay: HTRF KRAS-SOS1 interaction assay, wildtype KRAS. The following applies: binned ≤2 μM / >2 μM, read-out: Inhibition of KRAS WT (IC50). The source says: (§1) This assay can be also used to assess a selective inhibition or reduction of signaling output of a mutant Ras protein relative to a wildtype, or relative to a different mutant Ras protein. For example, the equilibrium interaction of wildtype KRAS or K-Ras mutant (e.g., wildtype or a mutant thereof) with SOS1 (e.g., hSOS1) can be assessed as a proxy or an indication for the ability of a subject compound to bind and inhibit Ras protein. The HTRF assay detects from (i) a fluorescence resonance energy transfer (FRET) donor (e.g., antiGST-Europium) that is bound to GST-tagged K-Ras mutant to (ii) a FRET acceptor (e.g., anti-6His-XL665) bound to a His-tagged hSOS1.
(§2) The assay buffer can contain ˜5 mM HEPES pH 7.4, ˜150 mM NaCl, ˜1 mM DTT, 0.05% BSA and 0.0025% (v/v) Igepal. A Ras working solution is prepared in an assay buffer containing typically a suitable amount of the protein construct (e.g., GST-tagged K-Ras mutant) and the FRET donor (e.g., antiGST-Eu (K) from Cisbio, France). A SOS1 working solution is prepared in an assay buffer containing suitable amount of the protein construct (e.g., His-hSOS1) and the FRET acceptor (e.g., anti-6His-XL665 from Cisbio, France). A suitable amount of the protein construct will depend on the range of activity or range of IC50 values being detected or under investigation. For detecting an IC50 within a range of 500 nM, the protein constructs of the same range of molarity can be utilized.
(§3) A fixed volume of DMSO with or without test compound is transferred into a 384-well plate. Ras working solution is added to all wells of the test plate. SOS1 working solution is added to all wells except for those that are subsequently filled with inhibitor control solution. Upon incubation for about 10 minutes or longer, the fluorescence is measured with a M1000Pro plate reader (Tecan) using HTRF detection (excitation 337 nm, emission 1:620 nm, emission 2:665 nm). Compounds are tested in duplicate at different concentrations (for example, 10 μM, 2.5 μM, 0.63 μM, 0.16 μM, 0.04 μM, 0.01 μM test compound). The ratiometric data (i.e., emission 2 divided by emission 1) is used to calculate IC50 values against Ras using GraphPad Prism (GraphPad software). Signaling output measured in terms of IC50 values can be obtained and a ratio of IC50 against one mutant relative to another mutant can be calculated.

The next assay has as its target T2, KRAS G12S (Homo sapiens, UniProt P01116, G12S).
T2 construct: made in house; host or cells: E. coli, e.g. BL21 (DE3)
Kind of assay: HTRF KRAS-SOS1 interaction assay, KRAS G12S. The following applies: binned ≤2 μM / >2 μM, read-out: Inhibition of KRAS G12S (IC50).
Source text: as §1, §2, §3

A further assay concerns the target T3, KRAS G12D (Homo sapiens, UniProt P01116, G12D).
T3 construct: made in house; host or cells: E. coli, e.g. BL21 (DE3)
The assay can be described thus: HTRF KRAS-SOS1 interaction assay, KRAS G12D. The following applies: binned ≤2 μM / >2 μM, read-out: Inhibition of KRAS G12D (IC50).
Source text: as §1, §2, §3

A further assay has as its target T4, KRAS G12V (Homo sapiens, UniProt P01116, G12V).
T4 construct: made in house; host or cells: E. coli, e.g. BL21 (DE3)
Kind of assay: HTRF KRAS-SOS1 interaction assay, KRAS G12V. The following applies: binned ≤2 μM / >2 μM, read-out: Inhibition of KRAS G12V (IC50).
Source text: as §1, §2, §3

pIC50: −log10 of the molar value. Some results are limits rather than exact numbers.

T3 sequence (P01116 1-188 isoform P01116-2 G12D): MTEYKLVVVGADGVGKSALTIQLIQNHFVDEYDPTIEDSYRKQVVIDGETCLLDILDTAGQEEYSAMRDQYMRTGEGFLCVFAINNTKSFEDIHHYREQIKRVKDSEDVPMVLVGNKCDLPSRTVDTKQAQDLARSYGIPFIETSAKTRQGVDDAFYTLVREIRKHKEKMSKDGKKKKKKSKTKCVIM
T2 sequence (P01116 1-188 isoform P01116-2 G12S): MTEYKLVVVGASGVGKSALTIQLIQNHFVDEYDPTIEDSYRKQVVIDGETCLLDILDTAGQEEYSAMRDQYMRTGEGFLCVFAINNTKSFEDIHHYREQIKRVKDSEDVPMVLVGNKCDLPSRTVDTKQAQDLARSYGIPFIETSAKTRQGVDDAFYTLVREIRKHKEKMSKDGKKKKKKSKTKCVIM
T4 sequence (P01116 1-188 isoform P01116-2 G12V): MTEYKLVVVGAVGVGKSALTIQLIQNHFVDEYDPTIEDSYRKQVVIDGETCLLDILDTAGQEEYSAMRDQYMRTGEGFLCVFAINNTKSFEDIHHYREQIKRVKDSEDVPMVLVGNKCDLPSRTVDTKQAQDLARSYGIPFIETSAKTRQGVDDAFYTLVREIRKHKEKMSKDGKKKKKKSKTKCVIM
T1 sequence (P01116 1-188 isoform P01116-2): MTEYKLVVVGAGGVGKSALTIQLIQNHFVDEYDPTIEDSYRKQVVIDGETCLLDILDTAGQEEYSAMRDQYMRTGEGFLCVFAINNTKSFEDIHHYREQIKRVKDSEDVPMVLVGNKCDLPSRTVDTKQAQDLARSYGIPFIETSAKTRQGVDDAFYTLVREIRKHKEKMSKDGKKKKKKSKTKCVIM

As to `Cc1cnc(N)c([C@@H](C)N2CCOc3c(C(F)(F)F)c(-c4ccc(F)c5sc(N)c(C#N)c45)c(F)c4nc(OC[C@@]56CCCN5C[C@H](F)C6)nc2c34)c1` (single isomer, unassigned) [Compound 861], the pIC50 on KRAS WT, on KRAS G12S and on KRAS G12D was less than 5.70 throughout.
For `CCC(c1cccnc1N)N1CCOc2c(Cl)c(-c3ccc(F)c4sc(N)c(C#N)c34)c(F)c3nc(OC[C@@]45CCCN4C[C@H](F)C5)nc1c23` (mixture of isomers) [Compound 643, 2-amino-4-(4-(1-(2-aminopyridin-3-yl)propyl)-8-chloro-10-fluoro-2-(((2R,7aS)-2-fluorotetrahydro-1H-pyrrolizin-7a(5H)-yl)methoxy)-5,6-dihydro-4H-[1,4]oxazepino[5,6,7-de]quinazolin-9-yl)-7-fluorobenzo[b]thiophene-3-carbonitrile], the pIC50 at KRAS WT, at KRAS G12S and on KRAS G12V was no less than 5.70 in each case.
On to `C#C[C@H]1COc2c(Cl)c(-c3ccc(F)c4sc(N)c(C#N)c34)c(F)c3nc(OC[C@@]45CCCN4C[C@H](F)C5)nc(c23)N1C(C)c1cccnc1N` (single isomer, unassigned) [Compound 664], for which the pIC50 on KRAS WT, at KRAS G12S and at KRAS G12V was no less than 5.70 each time.
As to `CP(C)(=O)CC[C@H](c1cccnc1N)N1CCOc2c(C(F)(F)F)c(-c3ccc(F)c4sc(N)c(C#N)c34)c(F)c3nc(OC[C@@]45CCCN4C[C@H](F)C5)nc1c23` (single isomer, unassigned) [Compound 671], the pIC50 at KRAS WT, at KRAS G12S and at KRAS G12V was no less than 5.70 in each case.
For the molecule `C[C@H](c1cccnc1N)N1CCOc2c(Cl)c(-c3ccc(F)c4sc(N)c(C#N)c34)c(F)c3nc(OCC4(CN(C)C)CC4)nc1c23` (single isomer, unassigned) [Compound 638], the pIC50 on KRAS WT, on KRAS G12S and at KRAS G12V was no less than 5.70 throughout.
Regarding `C[C@H](c1cccnc1N)N1CCOc2c(C(F)(F)F)c(-c3cccc4sc(N)c(C#N)c34)c(F)c3nc(OC[C@@]45CCCN4C[C@H](F)C5)nc1c23` (single isomer, unassigned) [Compound 678], the pIC50 on KRAS WT, at KRAS G12S and on KRAS G12V was no less than 5.70 throughout.
`N#Cc1c(N)sc2c(F)ccc(-c3c(C(F)(F)F)c4c5c(nc(OC[C@@]67CCCN6C[C@H](F)C7)nc5c3F)N([C@@H](c3cccnc3N)C(F)F)CCO4)c12` (single isomer, unassigned) [Compound 625]: the pIC50 on KRAS WT, on KRAS G12S and on KRAS G12V was no less than 5.70 in each case.
On to `CN(C)CC[C@H](c1cccnc1N)N1CCOc2c(C(F)(F)F)c(-c3ccc(F)c4sc(N)c(C#N)c34)c(F)c3nc(OC[C@@]45CCCN4C[C@H](F)C5)nc1c23` (single isomer, unassigned) [Compound 669], for which the negative-log IC50 (pIC50) at KRAS WT, on KRAS G12S and at KRAS G12V was no less than 5.70 in each case.
Turning to `CC(c1cccnc1N)N1CCOc2c(Cl)c(-c3ccc(F)c4sc(N)c(C#N)c34)c(F)c3nc(OC[C@@]45CCCN4C[C@H](F)C5)nc1c23` (single isomer, unassigned) [Compound 656], the pIC50 on KRAS WT, on KRAS G12S and at KRAS G12V was no less than 5.70 each time.
As to `C[C@H](c1cccnc1N)N1CCOc2c(Cl)c(-c3cccc4sc(N)c(C#N)c34)c(F)c3nc(OC[C@@]45CCCN4C[C@H](F)C5)nc1c23` (single isomer, unassigned) [Compound 668], the negative-log IC50 (pIC50) at KRAS WT, on KRAS G12S and on KRAS G12V was no less than 5.70 in each case.
`C[C@H]1CN([C@@H](c2cccnc2N)C(F)F)c2nc(OC[C@@]34CCCN3C[C@H](F)C4)nc3c(F)c(-c4ccc(F)c5sc(N)c(C#N)c45)c(C(F)(F)F)c(c23)O1` (single isomer, unassigned) [Compound 879]: the pIC50 on KRAS WT, at KRAS G12S and at KRAS G12V was no less than 5.70 throughout.
As for `N#Cc1c(N)sc2c(F)ccc(-c3c(C(F)(F)F)c4c5c(nc(OC[C@@]67CCCN6C[C@H](F)C7)nc5c3F)N([C@H](CC3CC(F)(F)C3)c3cccnc3N)CCO4)c12` (single isomer, unassigned) [Compound 686], the pIC50 at KRAS WT, at KRAS G12S and on KRAS G12V was no less than 5.70 in each case.
Take `CC(c1cccnc1N)N1c2nc(OC[C@@]34CCCN3C[C@H](F)C4)nc3c(F)c(-c4ccc(F)c5sc(N)c(C#N)c45)c(Cl)c(c23)OC[C@@H]1CC#N` (mixture of isomers) [Compound 615, 2-amino-4-((5S)-4-(1-(2-aminopyridin-3-yl)ethyl)-8-chloro-5-(cyanomethyl)-10-fluoro-2-(((2R,7aS)-2-fluorotetrahydro-1H-pyrrolizin-7a (5H)-yl)methoxy)-5,6-dihydro-4H-[1,4]oxazepino[5,6,7-de]quinazolin-9-yl)-7-fluorobenzo[b]thiophene-3-carbonitrile]: the negative logarithm of the IC50 (pIC50) on KRAS WT, on KRAS G12S and on KRAS G12V was no less than 5.70 in each case.
Consider `CC(c1cncnc1N)N1CCOc2c(Cl)c(-c3ccc(F)c4sc(N)c(C#N)c34)c(F)c3nc(OC[C@@]45CCCN4C[C@H](F)C5)nc1c23` (single isomer, unassigned) [Compound 646], for which the pIC50 at KRAS WT, on KRAS G12S and at KRAS G12V was no less than 5.70 in each case.
In the case of `CCO/N=C(\C)CCC[C@H](c1cccnc1N)N1CCOc2c(C(F)(F)F)c(-c3ccc(F)c4sc(N)c(C#N)c34)c(F)c3nc(OC[C@@]45CCCN4C[C@H](F)C5)nc1c23` (single isomer, unassigned) [Compound 720], the pIC50 at KRAS WT, at KRAS G12V and on KRAS G12D was no less than 5.70 in each case.
For the molecule `C[C@H](c1cccnc1N)N1CCOc2c(C(F)(F)F)c(-c3ccc(F)c4sc(N)c(C#N)c34)c(F)c3nc(OC[C@@]45CCCN4C[C@H](F)C5)nc1c23` (single isomer, unassigned) [Compound 757], the pIC50 at KRAS WT, at KRAS G12V and at KRAS G12D was no less than 5.70 in each case.
As to `N#Cc1c(N)sc2c(F)ccc(-c3c(C(F)(F)F)c4c5c(nc(OC[C@@]67CCCN6[C@H](COc6cnc(C(F)(F)F)cn6)CC7)nc5c3F)N([C@@H](c3cccnc3N)C(F)F)CCO4)c12` (single isomer, unassigned) [Compound 882], the negative logarithm of the IC50 (pIC50) at KRAS G12S, on KRAS G12V and at KRAS G12D was no less than 5.70 each time.
As for `N#Cc1c(N)sc2c(F)ccc(-c3c(C(F)(F)F)c4c5c(nc(OC[C@@]67CCCN6C[C@H](F)C7)nc5c3F)N([C@H](CC3CCOC3)c3cccnc3N)CCO4)c12` (single isomer, unassigned) [Compound 772], the pIC50 on KRAS WT, at KRAS G12V and at KRAS G12D was no less than 5.70 each time.
Regarding `C[C@H](c1cccnc1N)N1CCOc2c(C(F)(F)F)c(-c3ccc(F)c4sc(N)c(C#N)c34)c(F)c3nc(OC[C@@]45CCCN4C[C@H](F)C5)nc1c23` (single isomer, unassigned) [Compound 768], the pIC50 at KRAS G12S was no less than 5.70.
`C[C@H](c1cccnc1N)N1CCOc2c(C(F)(F)F)c(-c3cc(F)c(F)c4sc(N)c(C#N)c34)c(F)c3nc(OC[C@@]45CCCN4C[C@H](F)C5)nc1c23` (single isomer, unassigned) [Compound 863]: the negative-log IC50 (pIC50) on KRAS WT, on KRAS G12S and at KRAS G12D was less than 5.70 in each case.
Take `N#Cc1c(N)sc2c(F)ccc(-c3c(C(F)(F)F)c4c5c(nc(OC[C@@]67CCCN6C[C@H](F)C7)nc5c3F)N([C@H](CC3CCOC3)c3cccnc3N)CCO4)c12` (single isomer, unassigned) [Compound 911]: the pIC50 on KRAS WT, on KRAS G12V and at KRAS G12D was no less than 5.70 in each case.
